Assays:
[1] = tested on: IFN-β production in PBMCs; assay: Decitabine-stimulated human PBMC assay; type: cell-based; conditions: anti-CD3/anti-CD28, 10 μM decitabine, 5 days
Method: EasySep buffer (32 mL, Stem Cell, cat. #20144) was used to dilute 8 mL of LRSC buffy coat (from fresh Leukopak) with gentle mixing. The diluted buffy coat (20 mL) was transferred into each of two SepMate 50 tubes, and the tubes were filled with 15 mL of Lyphoprep (Stem Cell, ct. #07851) density gradient. The SepMate tubes were then centrifuged at 1200G for 10 minutes at room temperature with the brake on. The top layer of supernatant was collected in SepMate tubes by quickly pouring it into a new 50 mL conical tube. The PBMCs were washed with EasySep buffer ×2 by centrifuging at 300G for 5 minutes. The cells were resuspended in 30 mL of EasySep and centrifuged at 100G for 5 minutes with the brake off, and the platelets were removed. The cells were then resuspended in 6 mL of 1×RBC lysis buffer (InvitroGen) and incubated at 37° C. for 5 minutes. Then, 25 mL of EasySep buffer was mixed into the tube and it was centrifuged at 300G for 5 minutes. The cells were resuspended in 10 mL of EasySep buffer and the cells were then counted with Cellometer (AO/PI). The PBMCs were resuspended in RPMI1640 (ThermoFisher)+10% FBS (HyClone)+p/s at 3×10^6/mL. The PBMCs (100 μL, 300 k PBMCs) were then seeded in a 96-well flat bottom microplate (Corning) that had been precoated with 100 μL of anti-CD3 antibody (10 μg/mL in PBS, Biolegend) or PBS at 4° C., one day before the assay was commenced. […]

[2] = tested on: Ovarian cancer SK-OV-3 cells; assay: Cancer cell viability assay with 3D cell colonies (CellTiter-Glo), SK-OV-3; type: cell-based; conditions: SK-OV-3, 3D methylcellulose colonies, 7 days
Method: (§1) Cancer cell lines were cultured in the following media: • Ovarian cancer OVCAR-8 cells—RPMI media containing 10% FBS • Ovarian cancer SK-OV-3 cells—McCoy's 5a media containing 10% FBS • Ovarian cancer SW756 cells—L-15 (100% air)+10% FBS • Esophageal cancer TE-1 cells—RPMI-1640+10% FBS • Esophageal cancer KYSE-410 cells—RPMI-1640+5˜10% FBS • Esophageal cancer KYSE-70 cells—RPMI-1640+10% h.i.FBS. • Pharyngeal cancer FaDu cells—MEM+0.01 mM NEAA+10% FBS
(§2) Cell colony formation was tested using a 3D methylcellulose-based CellTiter-Glo (CTG) viability assay (Cat. No: G7573, Promega). Briefly, cells were inoculated into 96-well plates (at 1,500 cells per well) into a solution of 0.65% methylcellulose in growth media and incubated overnight at 37° C. in 5% CO2. The next day, serially diluted test compound (islatravir, 4′-ethynyl-2-fluoro-2′-deoxyadenosine) or positive control (cisplatin, Cat. No. 6J015A89, Qilu Pharma) were added at the indicated concentrations, and the cells were incubated for 7 days. On day seven, 100 μL of CTG reagent was added, and the plates were incubated at room temperature for 20 min. Luminescence was read on an Envision Multi Label Reader according to manufacturer's instructions. IC50 values were determined using the following calculation: […]

[3] = tested on: Esophageal cancer TE-1 cells; assay: Cancer cell viability assay with 3D cell colonies (CellTiter-Glo), TE-1; type: cell-based; conditions: TE-1, 3D methylcellulose colonies, 7 days
Method: as §1, §2

[4] = tested on: Ovarian cancer OVCAR-8 cells; assay: Cancer cell viability assay with 3D cell colonies (CellTiter-Glo), OVCAR-8; type: cell-based; conditions: OVCAR-8, 3D methylcellulose colonies, 7 days
Method: as §1, §2

[5] = tested on: Pharyngeal cancer FaDu cells; assay: Cancer cell viability assay with 3D cell colonies (CellTiter-Glo), FaDu; type: cell-based; conditions: 3D methylcellulose colonies, 7 days
Method: as §1, §2

[6] = tested on: Esophageal cancer KYSE-410 cells; assay: Cancer cell viability assay with 3D cell colonies (CellTiter-Glo), KYSE-410; type: cell-based; conditions: KYSE-410, 3D methylcellulose colonies, 7 days
Method: as §1, §2

[7] = tested on: Esophageal cancer KYSE-70 cells; assay: Cancer cell viability assay with 3D cell colonies (CellTiter-Glo), KYSE-70; type: cell-based; conditions: KYSE-70, 3D methylcellulose colonies, 7 days
Method: as §1, §2

[8] = tested on: Ovarian cancer SW756 cells; assay: Cancer cell viability assay with 3D cell colonies (CellTiter-Glo), SW756; type: cell-based; conditions: SW756, 3D methylcellulose colonies, 7 days
Method: as §1, §2

[9] = target: LINE1 reverse transcriptase (Homo sapiens, UniProt O00370); assay: Homogeneous time-resolved fluorescence (HTRF) LINE1 RT assay; type: biochemical; parameters: recombinant MBP-tagged LINE1 protein (238-1061); MBP; made in house; conditions: recombinant MBP-tagged LINE1 protein (238-1061), read-out: IC50 for inhibiting LINE1 reverse transcriptase
Method: The LINE1 reverse transcriptase homogeneous time-resolved fluorescence (HTRF) assay was performed with recombinant MBP-tagged LINE1 protein (238-1061) (generated and purified according to procedures in Dai L. et al. BMC Biochemistry 2011; 12:18) in a 384-well format. Test compound was serially diluted in DMSO and further diluted in the assay buffer (50 mM Tris-HCl, 50 mM KCl, 10 mM MgCl2, 10 mM DTT, pH 8.1) to achieve a final DMSO concentration of 1%. The serially diluted compound was mixed with 64 ng/well of LINE1 enzyme, 5 nM of pre-annealed template/biotin-primer pair (synthesized at Generay Biotechnology), 10 nM of Fluorescein-12-dATP fluorescent probe (Perkin Elmer), and 1 μM dGTP/dCTP/dTTP (Thermo Fisher Scientific) in the assay buffer. The template/biotin-primer sequences were as follows:
(§3) After incubating at 25° C. for 60 minutes, the detection reagent (20 mM EDTA with streptavidin-terbium cryptate, Cisbio Bioassay) in the PPI buffer (Cisbio Bioassay) was added, and the mixture was incubated at 25° C. for 30 minutes. At the end of the incubation, fluorescence was read at ex/em=337/485 nm and ex/em=337/520 nm on an Envision 2104 plate reader (Perkin Elmer). The fluorescence ratio at 520/485 nm was used for the calculation. […] The IC50 was calculated by fitting the compound dose inhibition curve with a 4-parameter non-linear regression equation.

[10] = target: T1, HERV-K reverse transcriptase (Homo sapiens, UniProt V9H0F6); assay: Homogeneous time-resolved fluorescence (HTRF) HERV-K RT assay; type: biochemical; conditions: HERV-K reverse transcriptase (2-596)-8His protein, read-out: IC50 for inhibiting HERV-K reverse transcriptase
T1 construct: fused on or other part: C-terminal 8His tag
T1 sequence (V9H0F6 entry or part of it): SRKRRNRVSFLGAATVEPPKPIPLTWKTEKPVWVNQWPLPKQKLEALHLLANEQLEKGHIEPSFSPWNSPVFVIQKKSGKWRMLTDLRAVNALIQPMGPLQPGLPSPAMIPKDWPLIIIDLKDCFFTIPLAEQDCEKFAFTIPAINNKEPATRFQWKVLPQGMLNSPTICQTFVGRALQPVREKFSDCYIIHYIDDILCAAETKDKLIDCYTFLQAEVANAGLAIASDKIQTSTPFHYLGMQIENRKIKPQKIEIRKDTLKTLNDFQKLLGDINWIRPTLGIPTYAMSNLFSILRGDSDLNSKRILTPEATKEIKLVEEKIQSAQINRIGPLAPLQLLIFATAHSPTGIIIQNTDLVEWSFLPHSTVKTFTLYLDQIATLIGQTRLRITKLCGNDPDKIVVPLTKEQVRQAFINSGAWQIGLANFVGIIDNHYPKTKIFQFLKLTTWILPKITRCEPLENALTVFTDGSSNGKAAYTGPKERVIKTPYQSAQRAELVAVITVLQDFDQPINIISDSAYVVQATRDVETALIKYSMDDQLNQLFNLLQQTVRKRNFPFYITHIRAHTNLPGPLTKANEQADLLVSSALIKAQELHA
Method: The HERV-K reverse transcriptase homogeneous time-resolved fluorescence (HTRF) assay was performed in a 384-well format with HERV-K reverse transcriptase (2-596)-8His protein. Baculoviruses were created using Bac-to-Bac technology (Invitrogen). pFastBac donor plasmids containing HERV-K reverse transcriptase sequence (NCBI GenBank number AAC63291.1, J. Virology (1999) Vol. 73, No. 3, pp. 2365-2375) were transformed into DH10 Bac cells following the manufacturer's instructions. Recombinant bacmids were then isolated clonally and transfected into SF9 cells with lipofectin. HERV-K reverse transcriptase was expressed in the SF9 insect cells and then purified using immobilized metal affinity chromatography (IMAC) followed by size-exclusion chromatography (SEC). […]
as §3, with “30” for “60”, “20” for “(20”, “cryptate (Cisbio” for “cryptate, Cisbio”, “60” for “30”

How did the “production of IFN-β” value [1] turn out when C#C[C@]1(CO)O[C@@H](n2cnc3c(N)nc(Cl)nc32)C[C@@H]1O [4′-ethynyl-2-chloro-2′-deoxyadenosine] was run?
Its value is “activated production of IFN-β”.

How did the IC50 [2] turn out when N.N.[Cl][Pt][Cl] [Cisplatin, cisplatin] was run?
The IC50 was no more than 10 µM.

And the IC50 [3]?
The IC50 was no more than 10 µM.

What about the IC50 [4] of the same compound?
Its IC50 is no more than 10 µM.

What about the IC50 [5] of the same compound?
The IC50 was no more than 10 µM.

What about the IC50 [6] of the same compound?
Its IC50 is greater than 30 µM.

And the IC50 [7]?
Its IC50 is no more than 10 µM.

What about the IC50 [8] of the same compound?
Its IC50 is no more than 10 µM.

How did the IC50 [9] turn out when C#C[C@]1(COP(=O)(O)OP(=O)(O)OP(=O)(O)O)O[C@@H](n2cnc3c(N)nc(F)nc32)C[C@@H]1O [drawing 277] was run?
Its IC50 is 0.023 µM.

For C#C[C@]1(COP(=O)(O)OP(=O)(O)OP(=O)(O)O)O[C@@H](n2cnc3c(N)nc(Cl)nc32)C[C@@H]1O [drawing 278], which IC50 [9] is on record?
Its IC50 is 0.02 µM.

For C#C[C@]1(COP(=O)(O)OP(=O)(O)OP(=O)(O)O)O[C@@H](n2cnc3c(N)nc(F)nc32)C[C@@H]1O [drawing 279], which IC50 [10] is on record?
The IC50 was 0.0178 µM.

With C#C[C@]1(COP(=O)(O)OP(=O)(O)OP(=O)(O)O)O[C@@H](n2cnc3c(N)nc(Cl)nc32)C[C@@H]1O [drawing 280] as the compound, how does the IC50 [10] read?
Its IC50 is 0.31 µM.

Reference: patent US20240366649A1, “4-ETHYNYL-3-HYDROXY-TETRAHYDROFURANYL-ADENINE PHOSPHORAMIDATES AND RELATED COMPOUNDS AND THEIR USE IN TREATING MEDICAL CONDITIONS” (ROME THERAPEUTICS, INC., priority 2021, published 2024)
